{
  "source": "patent US20230313199A1",
  "about": "“TARGET FOR MODULATING BODY MASS” (Massachusetts Institute of Technology, priority 2020, published 2023)",
  "key": {"NTD of human MFSD7C [1]": {"target": "T1, NTD of human MFSD7C (Homo sapiens, UniProt Q9UPI3)", "T1 construct": "Plasmid harboring GST-His-tag-SUMO-NTD (amino acids 1-84); GST-His-tag-SUMO (N, cleaved yes); made in house; host or cells: Escherichia coli Lemo21(DE3)", "T1 sequence (Q9UPI3 1-84)": "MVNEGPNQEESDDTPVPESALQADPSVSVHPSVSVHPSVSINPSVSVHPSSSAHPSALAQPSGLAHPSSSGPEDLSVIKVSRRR", "experiment": "Isothermal titration calorimetry of NTD binding to heme"}, "NTD of human MFSD7C [2]": {"target": "T1, NTD of human MFSD7C", "experiment": "Gel-filtration assay of NTD and heme", "type": "binding", "conditions": "Superdex 75; absorbance 380 nm, 415 nm and 230 nm", "protocol": "Gel-filtration assay. Purified NTD (200 μM) was incubated with freshly prepared heme (150 μM) in a 1 mL reaction containing 5% DMSO, 25 mM HEPES-NaOH pH 7.8, and 10 mM NaCl. The solution was run over Superdex 75 (24 mL) gel-filtration column at 0.3 mL/min rate using AKTA-FPLC. Absorbance was monitored at 230, 380, and 415 nm. 2 mL injection volume was subtracted from the final elution volume. Solution containing dissolved hemin in the reaction buffer without the NTD protein aggregated on top of the Superdex 75 column, thus this control was avoided in our experiments."}, "THP-1 cells": {"system": "THP-1 cells", "experiment": "Oxygen consumption rate (Seahorse XF96e), parental THP-1 cells", "type": "cell-based, human", "conditions": "40 μM heme for one hour vs vehicle", "protocol": "Measurements of OCR, ECAR, and MMP. Oxygen consumption rate (OCR) and extracellular acidification rate (ECAR) were measured using XF96e Seahorse Extracellular Flux Analyzer per manufacturer's protocol. To increase adherence of suspension cells, Seahorse plates were coated with Corning® Cell TAK (Catalog No. 354240). THP-1 and 7CKO cells were then attached to the plate according to the manufacturer's instructions. Cells were incubated in complete RPMI media with or without 40 μM heme. Changes in oxygen consumption were measured following treatment with oligomycin (5 μM), FCCP (2 μM), and rotenone (1 μM) plus antimycin A (1 μM). For BMDM, 5×10^5 cells/well were plated in 100 μL of BMDM media, 24 hours before the start of the assay. For OCR measurements, BMDM media was replaced with 180 μL of Seahorse XF Base Medium supplemented with 10 mM D-glucose, 1 mM sodium pyruvate, and 1 mM L-glutamine. For ECAR measurements, BMDM media was replaced with 180 μL of Seahorse XF RPMI Medium pH 7.4 supplemented with 2 mM L-glutamine. The Glycolysis Stress Test was performed using D-glucose, rotenone/antimycin A, and 2-deoxy-D-glucose at 10 mM, 0.5 μM, and 50 mM final concentration, respectively."}, "[3]": {"target": "T2, Mutant NTD (all five histidine residues in the HP repeats mutated to alanine) (Homo sapiens, UniProt Q9UPI3, H30A/H36A/H48A/H54A/H66A)", "T2 construct": "Plasmid harboring GST-His-tag-SUMO-NTD (amino acids 1-84); GST-His-tag-SUMO (N, cleaved yes); made in house; host or cells: Escherichia coli", "T2 sequence (Q9UPI3 1-84 H30A/H36A/H48A/H54A/H66A)": "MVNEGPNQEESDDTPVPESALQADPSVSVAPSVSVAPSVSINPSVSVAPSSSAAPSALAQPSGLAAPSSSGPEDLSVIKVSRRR", "experiment": "Heme absorbance-shift assay with mutant NTD", "type": "binding"}, "NTD of human MFSD7C [4]": {"target": "T1, NTD of human MFSD7C", "experiment": "Heme absorbance-shift assay with wild-type NTD", "type": "binding", "protocol": "Heme absorbance-shift assay. Hemin was prepared fresh before each experiment. Approximately 20 mg of hemin (Sigma) was placed in a fresh tube and resuspended with 1 mL of DMSO. The hemin solution was slowly diluted while mixing with 1 mL of 2× buffer C (25 mM HEPES-NaOH pH 7.8, 10 mM NaCl), and aggregated hemin was eliminated by passing the solution through a 0.2 μm filter unit. Hemin concentration was determined by diluting the filtered solution with 1× buffer C 1:100 and using the extinction coefficient of 58,400 cm^−1M^−1 at 385 nm. For each reaction, the 200 μL reaction mix containing 100 μM hemin, 25 mM HEPES-NaOH pH 7.8, 10 mM NaCl, and various concentrations of wild-type or mutant NTD protein, was placed in a transparent 96-well plate. Absorbance intensity was measured using Tecan Infinite M200 Pro microplate reader, between 330 and 550 nm using 5 nm steps. The absorbance intensity for dissolved hemin was subtracted from absorbance intensity from hemin incubated with various concentrations of protein."}},
  "data": [
    {"smiles": "C=CC1=C(C)c2cc3[n-]c(cc4[n-]c(cc5nc(cc1n2)C(C)=C5C=C)c(C)c4CCC(=O)O)c(CCC(=O)O)c3C.[Fe+2]", "note": "[heme]", "values": [
      {"measurement": "heme molecules bound by the NTD", "setting": "NTD of human MFSD7C [1]; ITC", "result": "three"},
      {"measurement": "heme molecules the NTD is capable of binding", "setting": "NTD of human MFSD7C [1]; overall conclusion of Example 2", "result": "2-3"},
      {"measurement": "co-elution in gel-filtration chromatography", "setting": "NTD of human MFSD7C [2]", "result": "co-eluted with the NTD"},
      {"measurement": "basal OCR", "setting": "THP-1 cells", "result": "increased"},
      {"measurement": "maximal OCR", "setting": "THP-1 cells", "result": "increased"},
      {"measurement": "absorbance shift of heme", "setting": "[3]", "result": "abolished"},
      {"measurement": "absorbance shift of heme (Soret band, Q band)", "setting": "NTD of human MFSD7C [4]; 100 μM heme, various concentrations of wild-type NTD", "result": "concentration-dependent increase in the intensities of the Soret band (415 nm) and the Q band (535 nm)"},
      {"measurement": "heme binding sites per NTD from rate of increase of Soret band intensities", "setting": "NTD of human MFSD7C [4]; 415 nm absorbance versus NTD concentration", "result": "two or more heme binding sites per NTD"}
    ]}
  ]
}
